Test results taken from PubChem BioAssay (NCI).
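Following 48 hours of exposure in 96-well plates, responses at five concentrations were used to interpolate endpoints linearly. GI50: concentration for 50% inhibition of growth. TGI: total growth inhibition.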

How the values were obtained:
Experiment in all cases: inhibition of tumour cell growth, NCI panel, 48 h
[1] = test system: OVCAR-4 ovarian
[2] = test system: CAKI-1 renal
[3] = test system: SK-MEL-5 melanoma
[4] = test system: SF-539 CNS
[5] = test system: SW-620 colon
[6] = test system: UO-31 renal
[7] = test system: SNB-19 CNS
[8] = test system: NCI-H460 lung
[9] = test system: HOP-62 NSCLC
[10] = test system: IGROV1 ovarian

Row | Structure (SMILES) | GI50 [1] [µM] | TGI [1] [µM] | GI50 [2] [µM] | TGI [2] [µM] | GI50 [3] [µM] | TGI [3] [µM] | GI50 [4] [µM] | TGI [4] [µM] | GI50 [5] [µM] | TGI [5] [µM] | GI50 [6] [µM] | TGI [6] [µM] | GI50 [7] [µM] | TGI [7] [µM] | GI50 [8] [µM] | TGI [8] [µM] | GI50 [9] [µM] | TGI [9] [µM] | GI50 [10] [µM] | TGI [10] [µM]
1 | COc1ccc(-c2cn[nH]c2-c2cc(OC)c3c(c2)OCCO3)cc1 | 1.03 | > 100 | 0.143 | 58.4 | 0.0717 | 8.08 | 0.124 | 0.441 | 0.0506 | > 72.5 | 0.734 | 42 | 0.33 | > 100 | 0.0686 | 11.4 | 0.264 | 47.6 | 0.384 | 39.6
2 | C/C(=N\NC(N)=S)c1nc2ccc(Cl)cc2[nH]1 | 1.31 | 19.9 | 0.287 | 1.74 | 2.7 | 22.4 | 2.45 | 9.7 | 2.96 | > 50 | 0.3 | 3.27 | 3.93 | > 50 | 1.33 | 5.83 | 2.7 | 11.9 | 3.06 | 17.8
3 | COc1ccc(Cl)cc1Nc1nc(C(F)(F)F)ccc1C(=O)N/N=C/c1cc(OC)c(OC)c(OC)c1 | 1.32 | > 100 | 1.61 | 4.98 | 1.68 | 4.57 | 1.51 | 3.2 | 2.79 | > 100 | 1.24 | 3.79 | 2.44 | 19.5 | 2.68 | 10.1 | 5.17 | 20.5 | 0.346 | 2.3
4 | COc1ccc(CN2c3ccccc3CCc3ccccc32)cc1F | 0.868 | > 100 | 0.549 | > 100 | 0.522 | 14.2 | 0.287 | 0.958 | 0.386 | > 100 | 0.814 | > 100 | 0.697 | > 100 | 0.419 | > 100 | 0.529 | > 100 | 1.57 | > 100
5 | C[C@]12CC[C@@H]3c4ccc(O)cc4C(O)C[C@H]3[C@@H]1CCC2=O (stereo not given in full) | 61.1 | > 100 | > 100 | > 100 | > 100 | > 100 | > 100 | > 100 | > 100 | > 100 | 53.8 | > 100 | > 100 | > 100 | > 100 | > 100 | > 100 | > 100 | 58 | > 100
6 | CC(=O)O[C@@H]1C2C(=O)OC(=O)C2C2CCC[C@]23O[C@H]13 (stereo not given in full) |  | > 100 |  | > 100 |  | > 100 |  | > 100 |  | > 100 |  | > 100 |  | > 100 |  | > 100 |  | > 100 |  | > 100
